Data set [1] has as its system BC4-M5M12 × PHA155 hybrid. Kind of data set: Test E injury to sunflower hybrid. In kind it is in vivo. The method, then: Based on the results from Test D, a modified protocol was developed to include three timings of post-emergence treatment. The hybrid BC4-M5M12 (female parent)×PHA155 restorer line (male parent) described in Test C was used in this test. Various herbicide programs were tested using three replications. […] Seed coatings of these formulated herbicides were applied to 6 kg of seeds in such amount that considering the distribution of the coated seeds in each pot, the herbicide active ingredient (a.i.) application rates per hectare were as indicated.
The treatments were applied similar to the methods described for Test D. Pre-emergence applications were broadcast only, not soil incorporated. For pre-emergence application, the pots were sprayed using the high rates of the herbicides two days after sowing the sunflower seeds. Post-emergence treatments were applied at the 4-6 leaf stage of sunflower (corresponding to early stage of Orobanche attachment; identified as “T1”), the 6-8 leaf stage of sunflower (corresponding to the mid stage of Orobanche attachment; nodules <5 mm diameter; identified as “T2”) and 8-12 leaf stage of sunflower (corresponding to late stage of Orobanche attachment; identified as “T3”). The mid-stage applications included the high as well as low application rates of each herbicide.
For comparison were also included in this test other acetolactate synthase-inhibiting herbicides reported in the literature as giving good weed control of Orobanche (L. García-Torres et al., Weed Research 1994, 34, 395-402; L. García-Torres et al., Weed Technology 1995, 9, 819-824; J. Hershenhorn et al., Weed Technology 1998, 12, 108-114).

The test system of data set [2] is M5M7. Kind of data set: Test B greenhouse phytotoxicity, M5M7. The conditions noted are these: in vivo. In kind it is in vivo, sunflower. The gist of the method:
(§1)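 Formulated ALS-inhibiting herbicides sprayed post-emergence at the 4-leaf stage on homozygous mutant sunflower inbreds (M5 maintainers and BC4 male-sterile back-crosses) in the greenhouse, at rates commonly used in registered crops. Two replicates; crop injury rated as % phytotoxicity, 0% meaning no injury.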

Data set [3] has as its system M5M11. Kind of data set: Test B greenhouse phytotoxicity, M5M11. The note with it: in vivo. It is filed as in vivo, sunflower. The method in brief: as §1
The test system of data set [4] is M5M12. Kind of data set: Test B greenhouse phytotoxicity, M5M12. In kind it is in vivo, sunflower. The conditions noted are these: in vivo. The method in brief:
as §1

Data set [5] concerns BC4-M5M7. Kind of data set: Test B greenhouse phytotoxicity, BC4-M5M7. The note with it: in vivo. In kind it is in vivo, sunflower. The gist of the method: as §1
Data set [6] has as its system BC4-M5M11. Kind of data set: Test B greenhouse phytotoxicity, BC4-M5M11. In kind it is in vivo, sunflower. The note with it: in vivo. The gist of the method: as §1
Data set [7] has as its system BC4-M5M12. Kind of data set: Test B greenhouse phytotoxicity, BC4-M5M12. It is filed as in vivo, sunflower. The conditions noted are these: in vivo. The method in brief:
as §1

In data set [8] the test system is BC4-M5M12 × PHA155. Kind of data set: Test C field phytotoxicity, BC4-M5M12 × PHA155. It is filed as in vivo, sunflower. The source says:
(§2) A rating of 0% phytotoxicity means no crop injury.

The test system of data set [9] is BC4-M5M7 × PHA155. Kind of data set: Test C field phytotoxicity, BC4-M5M7 × PHA155. It is filed as in vivo, sunflower.
Source text: as §2

Data set [10] deals with 'M2' seeds. Kind of data set: Hydroponic selection of M2 seeds with sulfonylurea herbicides. It is filed as in vivo, sunflower. The note with it: hydroponic beds. The method, then:
‘M2’ seeds were seeded in individual hydroponic beds described as “Large-Scale Hydroponic Screening System” in U.S. Pat. No. 5,084,082 and treated with sulfonylurea herbicides. For each treatment, 10,000 seeds were added per bed. […] Most of the treatments used thifensulfuron-methyl at 20, 40 or 50 μg/L or rimsulfuron at 40 or 80 μg/L. Five plants showing resistance to sulfonylurea herbicides were found during various selection experiments; these are identified in Table 2.

The mark [11] stands for this setting: postemergence 7.5 g a.i./ha, 7 DAT.
[12] abbreviates: postemergence 7.5 g a.i./ha, 15 DAT.
Where [13] appears, read: postemergence 7.5 g a.i./ha, 30 DAT.
Where [14] appears, read: postemergence 15 g a.i./ha, 7 DAT.
Where [15] appears, read: postemergence 15 g a.i./ha, 15 DAT.
[16] abbreviates: postemergence 15 g a.i./ha, 30 DAT.

As to `COC(=O)c1ccccc1S(=O)(=O)NC(=O)Nc1nc(C)nc(OC)n1` [Metsulfuron-methyl, metsulfuron-methyl], the “sunflower phytotoxicity” value in data set [1] (in vivo) is “more likely to cause sunflower phytotoxicity”.

Take `COC(=O)c1ccccc1S(=O)(=O)NC(=O)N(C)c1nc(C)nc(OC)n1` [Tribenuron-methyl, tribenuron-methyl]: the “Maximum Phytotoxicity” value in data set [2] was 12.5%; in [3], 0%; in [4], 7.5%; in data set [5] it was 10%; in data set [6] it was 17.5%; in data set [7] it was 20%. Also, the “Phytotoxicity Rating After Treatment” value in [8] (postemergence 11.25 g a.i./ha, 15 DAT) is listed as 18%.

On to `COC(=O)c1cccc(C)c1S(=O)(=O)NC(=O)Nc1nc(OCC(F)(F)F)nc(N(C)C)n1` [Triflusulfuron-methyl, triflusulfuron-methyl], for which the “Phytotoxicity Rating After Treatment” value worked out at 38% in [9] (setting [11]); 40% in data set [9] (setting [12]); 28% in [9] (setting [13]); 57% in data set [9] (setting [14]); 53% in data set [9] (setting [15]); 40% in data set [9] (setting [16]). Besides, the “Phytotoxicity Rating After Treatment” value in [8] (setting [11]) amounted to 22%; in [8] (setting [12]) it was 22%; in [8] (setting [13]), 25%; in [8] (setting [14]), 38%; in [8] (setting [15]), 45%; in [8] (setting [16]) it was 43%. For the same compound, the “sunflower phytotoxicity” value in data set [1] (Test E rates) is “transitory phytotoxicity symptoms”. The same compound gave an Injury in [1] (post-emergence 18.75 g a.i./ha at T2) of 0%. The “suitability as selection agent” value in data set [10] is “insufficiently active on sunflower”.

The values above are taken from patent US6822146B2, “Sulfonylurea-tolerant sunflower line M7” (priority 2000, dated 2004).
